The source of these data is US10844052B2, “LLS compounds for treatment of cancer” (THE REGENTS OF THE UNIVERSITY OF CALIFORNIA, priority 2016, dated 2020).

The term IC50 denotes the concentration that gives 50% inhibition. Read a high IC50 as lower potency.

This test relates to SKOV3. As to the kind of experiment: Anti-cancer activity against ovarian cancer cells SKOV3 (cell killing in solution / in vitro cell proliferation). In kind it is cell-based. Conditions: Homo sapiens, SK-OV-3, ovarian cancer cells SKOV3. The method, then: Biotinylated LLS2 was synthesized in solution and loaded it onto a streptavidin-coated plate. The biotinylated LLS2 immobilized on the plate killed approximately 21% of SKOV3 ovarian cancer cells at 100 μM loading, 16% at 50 μM and 14% at 25 μM (FIG. 4). The killing effect of the LLS2 compound was also tested in solution. […] In addition, LLS2 can kill pancreatic cancer cell line XPA3, prostate cancer cell line PC3, colon cancer cell line HT29, breast cancer cell line MCF7 and lung cancer cell line A549 (FIG. 4).
As to `CC(=O)OCCN(CCOC(C)=O)c1ccc(-c2nc3cc(C(CC(N)=O)NCc4ccc(Cl)c(Cl)c4)ccc3n2Cc2ccc(F)c(Cl)c2)cc1` (stereo not shown) [LLS21, ((4-(5-(3-amino-1-((3,4-dichlorobenzyl)amino)-3-oxopropyl)-1-(3-chloro-4-fluorobenzyl)-1H-benzo[d]imidazol-2-yl)phenyl)azanediyl)bis(ethane-2,1-diyl) Diacetate], the concentration for half-maximal inhibition (IC50) is 8.9 µM.

As for `CC(=O)OCCN(CCO)c1ccc(-c2nc3cc(C(CC(N)=O)NCc4ccc(Cl)c(Cl)c4)ccc3n2CC23CC4CC(CC(C4)C2)C3)cc1` (stereo not shown) [LLS32, 2-((4-(1-(((1s,3s)-adamantan-1-yl)methyl)-5-(3-amino-1-((3,4-dichlorobenzyl)amino)-3-oxopropyl)-1H-benzo[d]imidazol-2-yl)phenyl)(2-hydroxyethyl)amino)ethyl Acetate], the half-maximal inhibitory concentration (IC50) was 10.4 µM. The same measure for `NC(=O)CC(NCc1ccc(Cl)c(Cl)c1)c1ccc2c(c1)nc(-c1ccc(-c3cccc(CO)n3)cc1)n2CC12CC3CC(CC(C3)C1)C2` (stereo not shown) [LLS7, 3-(1-(((1s,3s)-adamantan-1-yl)methyl)-2-(4-(6-(hydroxymethyl)pyridin-2-yl)phenyl)-1H-benzo[d]imidazol-5-yl)-3-((3,4-dichlorobenzyl)amino)propanamide]: more than 50 µM; for `NC(=O)CC(NCc1ccc(Cl)c(Cl)c1)c1ccc2c(c1)nc(-c1ccc(N3CCOCC3)cc1)n2Cc1ccc(OC(F)(F)F)cc1` (stereo not shown) [LLS24, 3-((3,4-dichlorobenzyl)amino)-3-(2-(4-morpholinophenyl)-1-(4-(trifluoromethoxy)benzyl)-1H-benzo[d]imidazol-5-yl)propanamide]: 40.1 µM.

As to `NC(=O)CC(NC(=O)[C@@H](N)Cc1ccc(Cl)c(Cl)c1)c1ccc2c(c1)nc(-c1ccc(N(CCO)CCO)cc1)n2Cc1ccc(F)c(F)c1` (stereo partly drawn) [LLS12, (2S)-2-amino-N-(3-amino-1-(2-(4-(bis(2-hydroxyethyl)amino)phenyl)-1-(3,4-difluorobenzyl)-1H-benzo[d]imidazol-5-yl)-3-oxopropyl)-3-(3,4-dichlorophenyl)propanamide], the half-inhibitory concentration (IC50) is more than 50 µM. The same measure for `NC(=O)CC(c1ccc2c(c1)nc(-c1ccc(N(CCO)CCO)cc1)n2CC12CC3CC(CC(C3)C1)C2)N(Cc1ccc(Cl)c(Cl)c1)Cc1ccc(Cl)c(Cl)c1` (stereo not shown) [LLS29, 3-(1-(((1s,3s)-adamantan-1-yl)methyl)-2-(4-(bis(2-hydroxyethyl)amino)phenyl)-1H-benzo[d]imidazol-5-yl)-3-(bis(3,4-dichlorobenzyl)amino)propanamide]: 25.5 µM.

Turning to `NC(=O)CC(NCc1c(Cl)cccc1Cl)c1ccc2c(c1)nc(-c1ccc(N(CCO)CCO)cc1)n2Cc1ccc(F)c(F)c1` (stereo not shown) [LLS14, 3-(2-(4-(bis(2-hydroxyethyl)amino)phenyl)-1-(3,4-difluorobenzyl)-1H-benzo[d]imidazol-5-yl)-3-((2,6-dichlorobenzyl)amino)propanamide], the half-inhibitory concentration (IC50) turned out to be 29.2 µM. With `CC(=O)OCCN(CCOC(C)=O)c1ccc(-c2nc3cc(C(CC(N)=O)NC(=O)[C@@H](N)Cc4ccc(Cl)c(Cl)c4)ccc3n2CC23CC4CC(CC(C4)C2)C3)cc1` (stereo partly drawn) [LLS6, ((4-(1-(((1s,3R)-adamantan-1-yl)methyl)-5-(3-amino-1-((S)-2-amino-3-(3,4-dichlorophenyl)propanamido)-3-oxopropyl)-1H-benzo[d]imidazol-2-yl)phenyl)azanediyl)bis(ethane-2,1-diyl) Diacetate] the figure was 7.8 µM; with `CC(=O)OCCN(CCOC(C)=O)c1ccc(-c2nc3cc(C(CC(N)=O)NC(=O)[C@@H](N)Cc4ccc(F)c(F)c4)ccc3n2Cc2ccc(OC(F)(F)F)cc2)cc1` (stereo partly drawn) [LLS9, ((4-(5-(3-amino-1-((S)-2-amino-3-(3,4-difluorophenyl)propanamido)-3-oxopropyl)-1-(4-(trifluoromethoxy)benzyl)-1H-benzo[d]imidazol-2-yl)phenyl)azanediyl)bis(ethane-2,1-diyl) Diacetate], 17.6 µM. `NC(=O)CC(NCc1ccc(Cl)c(Cl)c1)c1ccc2c(c1)nc(-c1ccc(N(CCO)CCO)cc1)n2Cc1ccc(OC(F)(F)F)cc1` (stereo not shown) [LLS36, 3-(2-(4-(bis(2-hydroxyethyl)amino)phenyl)-1-(4-(trifluoromethoxy)benzyl)-1H-benzo[d]imidazol-5-yl)-3-((3,4-dichlorobenzyl)amino)propanamide] gave an IC50 of more than 50 µM. The same measure for `CC(=O)OCCN(CCOC(C)=O)c1ccc(-c2nc3cc(C(CC(N)=O)NCc4ccc(Cl)c(Cl)c4)ccc3n2Cc2ccc(OC(F)(F)F)cc2)cc1` (stereo not shown) [LLS23, ((4-(5-(3-amino-1-((3,4-dichlorobenzyl)amino)-3-oxopropyl)-1-(4-(trifluoromethoxy)benzyl)-1H-benzo[d]imidazol-2-yl)phenyl)azanediyl)bis(ethane-2,1-diyl) Diacetate]: 8.4 µM.

Regarding `CC(=O)OCCN(CCO)c1ccc(-c2nc3cc(C(CC(N)=O)NCc4ccc(Cl)c(Cl)c4)ccc3n2Cc2ccc(Cl)c(Cl)c2)cc1` (stereo not shown) [LLS33, 2-((4-(5-(3-amino-1-((3,4-dichlorobenzyl)amino)-3-oxopropyl)-1-(3,4-dichlorobenzyl)-1H-benzo[d]imidazol-2-yl)phenyl)(2-hydroxyethyl)amino)ethyl Acetate], the 50% inhibitory concentration (IC50) was found to be 10 µM. The same measure for `CC(=O)OCCN(CCO)c1ccc(-c2nc3cc(C(CC(N)=O)NCc4ccc(Cl)c(Cl)c4)ccc3n2Cc2ccc(OC(F)(F)F)cc2)cc1` (stereo not shown) [LLS35, 2-((4-(5-(3-amino-1-((3,4-dichlorobenzyl)amino)-3-oxopropyl)-1-(4-(trifluoromethoxy)benzyl)-1H-benzo[d]imidazol-2-yl)phenyl)(2-hydroxyethyl)amino)ethyl Acetate]: 10.8 µM; for `CC(=O)OCCN(CCOC(C)=O)c1ccc(-c2nc3cc(C(CC(N)=O)NCc4ccc(Cl)c(Cl)c4)ccc3n2Cc2ccc(F)c(F)c2)cc1` (stereo not shown) [LLS17, ((4-(5-(3-amino-1-((3,4-dichlorobenzyl)amino)-3-oxopropyl)-1-(3,4-difluorobenzyl)-1H-benzo[d]imidazol-2-yl)phenyl)azanediyl)bis(ethane-2,1-diyl) Diacetate]: 10.6 µM. With `NC(=O)CC(NC(=O)[C@@H](N)Cc1ccc(F)c(F)c1)c1ccc2c(c1)nc(-c1ccc(N(CCO)CCO)cc1)n2Cc1ccc(F)c(F)c1` (stereo partly drawn) [LLS18, (2S)-2-amino-N-(3-amino-1-(2-(4-(bis(2-hydroxyethyl)amino)phenyl)-1-(3,4-difluorobenzyl)-1H-benzo[d]imidazol-5-yl)-3-oxopropyl)-3-(3,4-difluorophenyl)propanamide] the figure was more than 50 µM; with `CC(=O)OCCN(CCOC(C)=O)c1ccc(-c2nc3cc(C(CC(N)=O)NC(=O)Nc4ccc(Cl)c(Cl)c4)ccc3n2Cc2ccc(F)c(F)c2)cc1` (stereo not shown) [LLS16, ((4-(5-(3-amino-1-(3-(3,4-dichlorophenyl)ureido)-3-oxopropyl)-1-(3,4-difluorobenzyl)-1H-benzo[d]imidazol-2-yl)phenyl)azanediyl)bis(ethane-2,1-diyl) Diacetate], 35.1 µM.

The compound `CC(=O)OCCN(CCO)c1ccc(-c2nc3cc(C(CC(N)=O)NC(=O)[C@@H](N)Cc4ccc(Cl)c(Cl)c4)ccc3n2Cc2ccc(F)c(F)c2)cc1` (stereo partly drawn) [LLS5, 2-((4-(5-(3-amino-1-((S)-2-amino-3-(3,4-dichlorophenyl)propanamido)-3-oxopropyl)-1-(3,4-difluorobenzyl)-1H-benzo[d]imidazol-2-yl)phenyl)(2-hydroxyethyl)amino)ethyl Acetate] registered an IC50 of 18.7 µM. This IC50 is about 1.9-fold lower than that of the compound before. `CC(=O)OCCN(CCOC(C)=O)c1ccc(-c2nc3cc(C(CC(N)=O)NC(=O)[C@@H](N)Cc4ccc(Cl)c(Cl)c4)ccc3n2Cc2cc(F)ccc2F)cc1` (stereo partly drawn) [LLS10, ((4-(5-(3-amino-1-((S)-2-amino-3-(3,4-dichlorophenyl)propanamido)-3-oxopropyl)-1-(2,5-difluorobenzyl)-1H-benzo[d]imidazol-2-yl)phenyl)azanediyl)bis(ethane-2,1-diyl) Diacetate] had an IC50 of 36.4 µM. The same measure for `CC(=O)OCCN(CCOC(C)=O)c1ccc(-c2nc3cc(C(CC(N)=O)NC(=O)[C@@H](N)[C@H](C)O)ccc3n2Cc2ccc(F)c(F)c2)cc1` (stereo partly drawn) [LLS3, ((4-(5-(3-amino-1-((2S,3S)-2-amino-3-hydroxybutanamido)-3-oxopropyl)-1-(3,4-difluorobenzyl)-1H-benzo[d]imidazol-2-yl)phenyl)azanediyl)bis(ethane-2,1-diyl) Diacetate]: 37.6 µM. The same measure for `CC(=O)OCCN(CCOC(C)=O)c1ccc(-c2nc3cc(C(CC(N)=O)NCc4ccc(Cl)c(Cl)c4)ccc3n2CC23CC4CC(CC(C4)C2)C3)cc1` (stereo not shown) [LLS26, ((4-(1-(((1s,3s)-adamantan-1-yl)methyl)-5-(3-amino-1-((3,4-dichlorobenzyl)amino)-3-oxopropyl)-1H-benzo[d]imidazol-2-yl)phenyl)azanediyl)bis(ethane-2,1-diyl) Diacetate]: 10.5 µM; for `CC(=O)OCCN(CCOC(C)=O)c1ccc(-c2nc3cc(C(CC(N)=O)NCc4ccc(Cl)c(Cl)c4)ccc3n2Cc2ccc(Cl)c(Cl)c2)cc1` (stereo not shown) [LLS20, ((4-(5-(3-amino-1-((3,4-dichlorobenzyl)amino)-3-oxopropyl)-1-(3,4-dichlorobenzyl)-1H-benzo[d]imidazol-2-yl)phenyl)azanediyl)bis(ethane-2,1-diyl) Diacetate]: 7.5 µM; for `CC(=O)OCCN(CCOC(C)=O)c1ccc(-c2nc3cc(C(CC(N)=O)NCc4ccc(F)c(F)c4)ccc3n2CC23CC4CC(CC(C4)C2)C3)cc1` (stereo not shown) [LLS8, ((4-(1-(((1s,3s)-adamantan-1-yl)methyl)-5-(3-amino-1-((3,4-difluorobenzyl)amino)-3-oxopropyl)-1H-benzo[d]imidazol-2-yl)phenyl)azanediyl)bis(ethane-2,1-diyl) Diacetate]: 16.7 µM.
